Measurements: PubChem BioAssay AID1918956 (Molecular Pharmacology Branch, DTP, NCI, 2023)
Values joined by “and” are separate entries in the source; they are usually repeats but may differ in a detail not shown here. Identical values can stand only once.

System: OVCAR-5 complex spheroids, viability
Experiment: Anticancer human tumor OVCAR-5 cell line growth inhibition;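 note: spheroids exposed to agents for seven days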;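 for viability, T/C: 100% = DMSO vehicle control wells viability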
Conditions: for viability, T/C: stronger effect = lower value
Excerpt: Multicellular complex tumor spheroid response to LSD1 Inhibitor Iadademstat in combination with a variety of drugs and investigational agents in selected tumor cell lines
The current study was undertaken to assess response to LSD1 inhibitors in combination with standard-of-care drugs and investigational agents in solid tumor complex spheroid models as well as in the K-562 leukemia. Complex spheroids include a stromal component modeled by human endothelial cells (HUVEC) and fibroblasts modeled by human mesenchymal stem cells (MSCs). The concentration ranges selected for each drug and investigational agent were based upon clinically achievable concentrations if the clinical Cmax of the agent was known.
Compounds. The drugs and investigational agents used in this study are listed on Table 1. All of the agents used, including staurosporine (NSC755774) and gemcitabine (NSC613327), were obtained from the Developmental Therapeutics Program, NCI. FDA-approved anticancer drugs are available from the NCI at http://dtp.nci.nih.gov/branches/dscb/oncology_drugset_explanation.html. Drugs and investigational agents were >95% pure by proton nuclear magnetic resonance (NMR) and liquid chromatography/mass spectrometry (LC/MS). Stock solutions were prepared at 400x in DMSO, stored at -70 degrees C, and diluted in fresh medium prior to their use. The final concentration of DMSO in cell culture wells never exceeded 0.25% (v/v). The FDA-approved anticancer drug set is available from the Developmental Therapeutics Program at https://dtp.cancer.gov/organization/dscb/obtaining/available_plates.htm. All drugs and investigational agents were tested over a range starting from a high concentration at or near the clinical Cmax and decreasing in half-log increments. If the clinical Cmax for an agent had not been determined, the highest concentration tested was 10 microM.
Cell Lines. The patient-derived cancer cell (PDC) lines: 292921-168-R-J2-PDC, K24384-001-R-PDC, and 521955-158-R2-J5-PDC pancreatic carcinomas, 556581-035-R-J1 ovarian carcinoma, 324938-238-R-J1-PDC, 855422-203-R-J1-PDC and 883617-216-R-J1-PDC urothelial bladder carcinomas, 743489-274-T-PDC renal cell carcinoma, 138582-R-J1 Merkel cell tumor, K60290-347-R-J1 and K57222-313-R-J1-PDC glioblastomas, 653999-131-R-J2-PDC, LG0703-F948-PDC, and 349418-098-R-PDC non-small cell lung carcinomas, 885512-296-R-J2-PDC, 171881-019-R-J1-PDC breast carcinomas and 186277-243-T-J2-PDC and 233499-124-R-J2-PDC colon carcinomas were obtained from the NCI Patient-Derived Models Repository (PDMR, https://pdmr.cancer.gov). The established cell lines NCI/ADR-RES (RRID:CVCL_14520 and OVCAR-5 (RRID:CVCL_1628) ovarian carcinomas, 786-O (RRID:CVCL_1051) and A498 […] renal cell carcinoma, NCI-H211 (ATCC, cat. CRL-5824; RRID:CVCL_1529), NCI-H196 (ATCC, cat. CRL-5823, RRID:CVCL_1509), SW 1271 (ATCC, cat. CRL-2177, RRID:CVCL_1716) and NCI-H1876 (ATCC, cat. CRL-5902, RRID:CVCL_1503) small cell lung carcinomas, MDA-MB-231 (RRID:CVCL_0062) and MDA-MB-468 (RRID:CVCL_0419)breast carcinomas (10-12). Pooled donor human umbilical vein endothelial cells (HUVEC, Lonza, cat. CC-2519) and human mesenchymal stem cells (hMSC, Lonza, cat. PT-2501) were purchased from Lonza (Walkersville, MD).
Cell Culture. All cells were maintained in an incubator at 37 degrees C and 5% CO2 with 95% humidity. The PDC lines were cultured according to standard operating procedures established by the NCI PDMR (https://pdmr.cancer.gov). Briefly all PDCs were thawed and cultured in Matrigel-coated flasks prepared with a working solution of 1X Ham's F-12 nutrient mix, without supplementation (Invitrogen, Waltham, MA, cat. 11765054), 100 U/mL penicillin-streptomycin (Invitrogen, cat. 15140122), and 2.5% Matrigel (Corning Inc., Corning, NY, cat. 354248) for the first three passages. […]

[1] = curve of first compound, second compound 0.1 µM
[2] = curve of first compound, second compound 0.316 µM
[3] = curve of first compound, second compound 1 µM
[4] = curve of first compound, second compound 3.16 µM
[5] = curve of first compound, second compound 10 µM

CC(C)CC(NC(=O)C(Cc1ccccc1)NC(=O)c1cnccn1)B(O)O (configuration not stated) + NC1CCC(NC2CC2c2ccccc2)CC1 showed an IC50 [1] of 7.78 nM, an IC50 [2] of 8.49 nM and an IC50 [3] of 7.89 nM. For the same molecule, the IC50 [4] was 7.42 nM, the IC50 [5] was 6.4 nM and the viability, T/C (second compound 0.1 µM, first compound 0.000316 µM) was 92%. The viability, T/C (second compound 0.1 µM, first compound 0.001 µM) was 100%, the viability, T/C (second compound 0.1 µM, first compound 0.00316 µM) was 84.3% and the viability, T/C (second compound 0.1 µM, first compound 0.01 µM) was 39.5%. For the same molecule, the viability, T/C (second compound 0.1 µM, first compound 0.0316 µM) was 16.2%, the viability, T/C (second compound 0.1 µM, first compound 0.1 µM) was 6.2% and the viability, T/C (second compound 0.316 µM, first compound 0.000316 µM) was 97.3%. The viability, T/C (second compound 0.316 µM, first compound 0.001 µM) was 97.9%, the viability, T/C (second compound 0.316 µM, first compound 0.00316 µM) was 87.4% and the viability, T/C (second compound 0.316 µM, first compound 0.01 µM) was 42.6%. It also gave a viability, T/C (second compound 0.316 µM, first compound 0.0316 µM) of 16.1%, a viability, T/C (second compound 0.316 µM, first compound 0.1 µM) of 5.03% and a viability, T/C (second compound 1 µM, first compound 0.000316 µM) of 88.6%. For the same molecule, the viability, T/C (second compound 1 µM, first compound 0.001 µM) was 98.8%, the viability, T/C (second compound 1 µM, first compound 0.00316 µM) was 85.2% and the viability, T/C (second compound 1 µM, first compound 0.01 µM) was 39.9%. The viability, T/C (second compound 1 µM, first compound 0.0316 µM) was 15.4%, the viability, T/C (second compound 1 µM, first compound 0.1 µM) was 5.03% and the viability, T/C (second compound 3.16 µM, first compound 0.000316 µM) was 79.8%. For the same molecule, the viability, T/C (second compound 3.16 µM, first compound 0.001 µM) was 104%, the viability, T/C (second compound 3.16 µM, first compound 0.00316 µM) was 78.6% and the viability, T/C (second compound 3.16 µM, first compound 0.01 µM) was 39%. The viability, T/C (second compound 3.16 µM, first compound 0.0316 µM) was 13.6%, the viability, T/C (second compound 3.16 µM, first compound 0.1 µM) was 4.87% and the viability, T/C (second compound 10 µM, first compound 0.000316 µM) was 84.4%. It also gave a viability, T/C (second compound 10 µM, first compound 0.001 µM) of 82.3%, a viability, T/C (second compound 10 µM, first compound 0.00316 µM) of 73.4% and a viability, T/C (second compound 10 µM, first compound 0.01 µM) of 35.1%. For the same molecule, the viability, T/C (second compound 10 µM, first compound 0.0316 µM) was 10.2% and the viability, T/C (second compound 10 µM, first compound 0.1 µM) was 3.83%.

In the case of NS(=O)(=O)OCC1CC(n2ccc3c(NC4CCc5ccccc54)ncnc32)CC1O (configuration not stated) + NC1CCC(NC2CC2c2ccccc2)CC1, the IC50 [1] is reported as 202 nM, the IC50 [2] is reported as 223 nM and the IC50 [3] is reported as 221 nM. The IC50 [4] was 179 nM, the IC50 [5] was 152 nM and the viability, T/C (second compound 0.1 µM, first compound 0.00949 µM) was 122%. It also gave a viability, T/C (second compound 0.1 µM, first compound 0.03 µM) of 118%, a viability, T/C (second compound 0.1 µM, first compound 0.0949 µM) of 76% and a viability, T/C (second compound 0.1 µM, first compound 0.3 µM) of 36.6%. The viability, T/C (second compound 0.1 µM, first compound 0.949 µM) was 16.2%, the viability, T/C (second compound 0.1 µM, first compound 3 µM) was 9.81% and the viability, T/C (second compound 0.316 µM, first compound 0.00949 µM) was 139%. For the same molecule, the viability, T/C (second compound 0.316 µM, first compound 0.03 µM) was 126%, the viability, T/C (second compound 0.316 µM, first compound 0.0949 µM) was 84.8% and the viability, T/C (second compound 0.316 µM, first compound 0.3 µM) was 38.4%. It also gave a viability, T/C (second compound 0.316 µM, first compound 0.949 µM) of 15.5%, a viability, T/C (second compound 0.316 µM, first compound 3 µM) of 10.6% and a viability, T/C (second compound 1 µM, first compound 0.00949 µM) of 108%. The viability, T/C (second compound 1 µM, first compound 0.03 µM) was 98.6%, the viability, T/C (second compound 1 µM, first compound 0.0949 µM) was 80.8% and the viability, T/C (second compound 1 µM, first compound 0.3 µM) was 38.2%. It also gave a viability, T/C (second compound 1 µM, first compound 0.949 µM) of 17.9%, a viability, T/C (second compound 1 µM, first compound 3 µM) of 10.7% and a viability, T/C (second compound 3.16 µM, first compound 0.00949 µM) of 98.8%. It also gave a viability, T/C (second compound 3.16 µM, first compound 0.03 µM) of 105%, a viability, T/C (second compound 3.16 µM, first compound 0.0949 µM) of 69.2% and a viability, T/C (second compound 3.16 µM, first compound 0.3 µM) of 33.5%. For the same molecule, the viability, T/C (second compound 3.16 µM, first compound 0.949 µM) was 16.4%, the viability, T/C (second compound 3.16 µM, first compound 3 µM) was 9.81% and the viability, T/C (second compound 10 µM, first compound 0.00949 µM) was 101%. It also gave a viability, T/C (second compound 10 µM, first compound 0.03 µM) of 79.3%, a viability, T/C (second compound 10 µM, first compound 0.0949 µM) of 64.7% and a viability, T/C (second compound 10 µM, first compound 0.3 µM) of 34%. For the same molecule, the viability, T/C (second compound 10 µM, first compound 0.949 µM) was 14.3% and the viability, T/C (second compound 10 µM, first compound 3 µM) was 8.62%.

For Cn1ncnc1C1c2n[nH]c(=O)c3cc(F)cc(c23)NC1c1ccc(F)cc1 (configuration not stated), the viability, T/C (compound 0.000316 µM) was 96.3% and 102%, the viability, T/C (compound 0.001 µM) was 91.2% and 102% and the viability, T/C (compound 0.00316 µM) was 89% and 98.7%. The viability, T/C (compound 0.01 µM) was 93.4% and 95.9%, the viability, T/C (compound 0.0316 µM) was 90.2% and 86% and the viability, T/C (compound 0.1 µM) was 99.8% and 93.8%. For the same molecule, the IC50 (curve of compound) was over 100 nM.
